Assay results published in EP1344776A1, “5- 2-hydroxy-3-[1-(3-trifluoromethylphenyl)-cyclopropyl]-propionylamino -phtalide and 6- 2-hydroxy-3-[1-(3-trifluoromethylphenyl)-cyclopropyl]-propionylamino -4-methyl-2,3-benzoxazin-1-one derivatives with progesterone receptor modulating activity for use in fertility control, hormone replacement …” (Schering Aktiengesellschaft, priority 2002, dated 2003).

Experiments:
[1] = tested on: female rats; assay: Ovulation inhibition test in rat; format: in vivo; details: rat (Table 1-b); read-out: Ovulation Inhibition (rat) [ED50]
Method: Before the treatment is started, two […] cycles of female rats (weight: 190 to 210 g) were monitored. Only animals having a regular 4 day-cycle are used for the subsequent test. Starting in the metoestrus, the test compound is administered for 4 days (day 1 to 4) and the cycle is controlled thereafter.
For subcutaneous application, the test compounds are dissolved in benzyl benzoate/castor oil (1+9 v/v) and the daily dose is administered in a volume of 1 ml/kg body weight.
For peroral application, the test compounds are suspended in a carrier liquid (85 mg Myrj^R in 100 ml 0.9 % w/v NaCl solution) and the daily dose is administered in a volume of 2 ml/kg body weight.
On day 4, after the application of the test compound, those animals having estrus or metoestrus are ovariectomized under ether anesthesia on one side. Preparations of the tubes are prepared and they are investigated for ova by means of microscope. On day 5 all animals (intact and partly ovariectomized) are killed with carbon dioxide, the tubes are preserved and analyzed in the same way. It is then determined, as a percentage, in how many animals ovulation was inhibited.

[2] = tested on: rat mammary epithelium; assay: Bioassay on proliferating/differentiating effects in the rat mammary epithelium (whole mount staining); format: in vivo; details: terminal end buds
Method: The object of this test is to evaluate the effect of progestins on the development of the mammary gland, in particular on the formation of terminal end buds in the mammary gland in estrogen primed rats.
Premature female rats (Wistar Han, SPF) are ovariectomized at the age of 21 days, 4 to 6 days before treatment start. The animals are treated for 6 days with standard estrogen (estrone, 70 µg/kg) and the test progestin (application volume: 0.1 ml/50g body weight; vehicle: benzylbenzoate/castor oil (1+4 v/v); subcutaneous). Control groups are e.g.: vehicle, estrone without progestin, estradiol together with a known progestin, e.g. R5020 (promegestone). After the 6-day treatment the animals are killed with carbon dioxide.
For the whole mount staining, animals are shaved in the left abdominal inguinal mammary region, which is cut from the body together with the skin. For the histological/immunohistochemical analyses the right abdominal inguinal mammary gland is cut from the body together with the connective tissue adhered thereto and fixed in 3.7 % formalin in PBS (phosphate buffer saline; without Ca^2+/Mg^2+).
The preparations are fixed over night in alcohol-formalin according to the method of Tellyesniczky (see below). Then the mammary gland tissue and subcutis adhered thereto are stripped from the cutis and the preparations are again fixed over night. The further steps are as follows: ethanol 70 %: 1.5 hours; acetone: 3 × 1.5 hours; acetone: over night; isopropanol: 1.5 hours; ethanol 96 %: 2 hours; hematoxylin-iron: 3 hours; VE water: first rinse the preparations and then 2 × 0.5 hours; ethanol 70 %: over night; ethanol 80 %: 1.5 hours; ethanol 96 %: 1.5 hours; isopropanol: 1.5 hours. The preparations are then moved to petri dishes and left in toluene for approximately 1 hour, i.e. until they have stopped to swim up. Then the preparations are treated with cedarwood oil (Merck, no. 1.06965). The incubation times above are minimum times and can be extended. In particular, incubation in ethanol 70 % after fixation can be extended to at least 2.5 weeks.
Preparation of the solutions necessary for the whole mount staining: • a) Alcohol-formalin according to Tellyesniczky: formaldehyde 37%: 81.8 ml, ethanol 70 %: 1636 ml, glacial acetic acid (to be added shortly before use): 81.8 ml (total: 1800 ml). • b) Hematoxylin mother solution: Hematoxylin (Merck, no. 1.15938): 10 g, ethanol 96 %: 100 ml. The solution must stand for 48 hours at 37 °C before use. It can be kept in a dark place for almost unlimited time. • c) Hematoxylin-iron solution for use: hematoxylin mother solution (filtered): 15.2 ml, ethanol 96 %: 1374 ml, FeCl3 x 6 H2O (s. 4): 91.1 ml, 1 mol/l HCl: 220 ml (total: 1700 ml); adjustment to a pH of 1.25 with 2mol/l NaOH. • d) FeCl3 x 6 H2O solution: FeCl3 x 6 H2O (Merck, no. 1.03943): 1.07 g, VE water: 90.2 ml, HCl: 37 %: 0.92 ml (total: 91.1 ml).
By means of a 40-fold magnification, the terminal end buds near the nipple in direction of the tail are counted. The area to be investigated should be about 1.8 mm^2. For well-differentiated preparations this area may be reduced, with at least 250 buds to be counted. After counting, the number of end buds per 1 mm^2 is calculated. […]

[3] = tested on: Pregnant rats (Wistar Han, SPF); assay: Pregnancy maintenance test in rat; format: in vivo; details: ovariectomized pregnant rats, with estrone
Description: In rats, castration induces termination of pregnancy. Progestins (combined with estrogens) are capable of maintaining pregnancy in castrated animals. However, the degree of pregnancy maintenance in castrated rats is optimal only in a defined dose range. Therefore, higher as well as lower doses generally induce a weaker effect. Accompanying treatment with defined doses of estrone (E1) increases the pregnancy maintaining effect of progestins.
Pregnant rats (Wistar Han, SPF) of 190 to 220 g (5 to 8 animals per dose) are ovariectomized on day 8 of pregnancy, 2 hours after the first substance administration. From day 8 to day 14, rats are daily treated with test progestin in combination with a standard dose of E1. One day later, animals are killed with carbon dioxide. For each animal, the number of living and dead fetuses is determined according to the heartbeat of the embryos. In case of empty uteri, the number of implantation sites is determined by means of staining with a 10 % ammonium sulfide solution.
S.c. (subcutaneous) application: The test progestin is dissolved in benzyl benzoate/castor oil (1+4 v/v), and the daily dose is administered in a volume of 1 ml/kg body weight.
P.o. (peroral) application: The test progestin is suspended in a carrier liquid (85 mg Myrj^R in 100 ml 0.9 % w/v NaCl solution), and the daily dose is administered in a volume of 2 ml/kg body weight.
I.p. (intraperitoneal) application: The test progestin is dissolved in propylene glycol and charged in miniature osmotic pumps (type 2001, 1.0 µl/h, 7 days), which are placed in the abdominal cavity of the rat.
The standard dose of estrone is 0.005 mg/kg body weight s.c. and is dissolved in benzyl benzoate/castor oil ([…]).
It is determined the pregnancy maintenance per animal [%], the pregnancy maintenance per dose (median of single values) and the ED50 (dose, at which pregnancy is maintained in 50 % of the animals; 100 % corresponds to control animals that are not ovariectomized).

[4] = tested on: hPR-A; assay: PR-A transcription assay (MTV-LUC reporter, SK-N-MC cells); format: cell-based, human; details: 10^-7 mol/l test compound relative to R5020 10^-7 mol/l, 24 hours, 0.1 µM
Method: (§1) The method for screening for PR isoform-specific progestins according to the present invention is carried out with first and second SK-N-MC cells stably transfected with a plasmid expressing the hPR-A (first cells) or the hPR-B (second cells) and the LUC reporter gene linked to the hormonally responsive MTV promoter.
(§2) For the transcription assay, the cells are seeded onto 96-well dishes (2x 10^4 cells/dish) and cultured in a medium as described above, with the exception that the FCS is replaced by a 3 % charcoal stripped FCS. 48 hours later, cells are contacted with prediluted test compounds. For determination of agonistic activity, cells are cultured in the presence of increasing concentrations (10^-6 to 10^-11 mol/l) of test progestins. As a positive control for reporter gene induction cells are treated with 10^-6 to 10^-11 mol/l R5020 (promegestone). As a negative control for reporter gene induction, cells are cultured in 1 % ethanol.
(§3) Evaluation of the response gives the efficacy [%], and evaluation of the EC50 values gives the potency [nM]. Calculation of the agonistic activity is conducted as follows:
(§4) The LUC activity [%] for the measured data points is calculated as follows: relative LUC activity [%] = 100 x((response 10)^-6 (to 10)^-11 mol/l test compound - CO)/(CI - CO) [formula] wherein CI = 100 % stimulation (R5020, 10^-7 mol/l) and CO = 0 % stimulation (ethanol, 1 %).
(§5) Thus, the efficacy [%] is calculated according to: efficacy [%] = 100 x((response 10)^-7 mol/l test compound - CO)/(CI - CO) [formula]
(§6) The potency [nM], i.e. the EC50, is determined graphically.

[5] = tested on: hPR-B; assay: PR-B transcription assay (MTV-LUC reporter, SK-N-MC cells); format: cell-based, human; details: 10^-7 mol/l test compound relative to R5020 10^-7 mol/l, 24 hours, 0.1 µM
Method: as §1
The cells are cultured in Minimum Essential Medium with Earl's Salts (S-MEM, without L-glutamine; Gibco BRL, no. 21090-022), supplemented with 10 % fetal calf serum (FCS), penicillin 100U/streptomycin 100 µg/ml (Biochrom, no. A2213), L-glutamine 4 mmol/l (Gibco BRL, no. 25030-024), sodium pyruvate 1 mmol/l (Biochrom, no. L0473) and 1x non-essential amino acids (Biochrom, no. K0293) at a temperature of 37 °C and in an atmosphere of 5 % carbon dioxide.
as §2
After incubation with test progestins for 24 hours, the medium is removed and cells are lysed with 20 µl of lysis buffer (Luciferase Assay System E 153A; Promega) and under agitation of the plate for 10 min. After addition of 30 µl of luciferase reagent (Luciferase Assay System E 151A + 152A; Promega) within 30 seconds per plate, the activity of the luciferase reporter gene product is determined in the cell lysates by means of a Microlite ML 3000 microtiter plate luminometer (Dynatech) in cycle mode.
as §3, §4, §5, §6

With CCC(=O)[C@@]1(C)CC[C@H]2[C@@H]3CCC4=CC(=O)CCC4=C3CC[C@@]21C [R5020, promegestone, reference compound] the ED50 [1] was 0.06 mg/kg, the “Mammary gland, whole mount staining (rat) [equi-efficient dose]” value ([2]; dose pair with 0.1 mg/kg R5020, independent test) was 0.1 mg/kg and the “Mammary gland, whole mount staining (rat) [equi-efficient dose]” value ([2]; dose pair with 0.3 mg/kg R5020, independent tests) was 0.3 mg/kg. For the same compound, the “Maintenance of pregnancy (rat) [ED50]” value [3] was 0.1 mg/kg.

Compound O=C1OCc2cc(NC(=O)C(O)(CC3(c4cccc(C(F)(F)F)c4F)CC3)C(F)(F)F)ccc21 (single isomer, unassigned; (+)) [((+)-4), (+)-5-{2-hydroxy-3-[1-(2-fluoro-3-trifluoromethylphenyl)-cyclopropyl]-2-trifluoromethyl-propionylamino}-phthalide] has a PR-A agonism efficacy [4] of 100% and a PR-B agonism efficacy [5] of 82%.

Cc1noc(=O)c2ccc(NC(=O)C(O)(CC3(c4cccc(C(F)(F)F)c4F)CC3)C(F)(F)F)cc12 (single isomer, unassigned; (+)) [((+)-2), (+)-6-{2-hydroxy-3-[1-(2-fluoro-3-trifluoromethylphenyl)-cyclopropyl]-2-trifluoromethyl-propionylamino}-4-methyl-2,3-benzoxazin-1-one] gave a PR-A agonism efficacy [4] of 99.2% and a PR-B agonism efficacy [5] of 67.5%.

In the case of Cc1noc(=O)c2ccc(NC(=O)C(C)(O)CC3(c4cccc(C(F)(F)F)c4)CC3)cc12 (single isomer, unassigned; (+)) [((+)-3), (+)-6-{2-hydroxy-3-[1-(3-trifluoromethylphenyl)-cyclopropyl]-2-methyl-propionylamino}-4-methyl-2,3-benzoxazin-1-one], the PR-A agonism efficacy [4] is reported as 94% and the PR-B agonism efficacy [5] is reported as 71%.
